80 compounds from PMC8041284, “Tunable Methacrylamides for Covalent Ligand Directed Release Chemistry” (Journal of the American Chemical Society, 2021) can be followed below.

Like-named read-outs stand apart in the source and are kept apart here.

In this assay the target is BTK (Homo sapiens, UniProt Q06187). Kind of assay: biochemical.
[1] abbreviates: read-out: BTK inhibition (%), 0.75 uM BTK, […] probe 3l, 15 min preincubation.

Sequence of BTK (Q06187 402-655 limits assumed): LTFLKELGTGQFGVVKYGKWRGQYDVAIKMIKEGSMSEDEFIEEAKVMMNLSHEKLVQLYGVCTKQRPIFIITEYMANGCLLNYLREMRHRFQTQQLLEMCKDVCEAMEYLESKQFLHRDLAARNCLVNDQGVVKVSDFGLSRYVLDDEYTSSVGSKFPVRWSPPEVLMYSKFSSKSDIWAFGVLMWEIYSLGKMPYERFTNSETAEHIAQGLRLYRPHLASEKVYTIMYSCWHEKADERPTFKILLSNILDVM

With `CC(C)(C)C(O)/C=C/c1ccc2c(c1)OCO2` (centres unmarked) [PCM-0216138], under setting [1], the inhibition at 10 µM was -4.6%.
Same read-out and setting: the figure for `Cc1ccccc1N1CCN(CCc2nnc3n2CCCC3)CC1` [PCM-0216139] is 3.9%.
As to `O=C1N=C(N2CCOCC2)CN1c1ccc(Cl)cc1` [PCM-0216140], the inhibition at 10 µM under setting [1] was -1.5%.
As for `COCC1=C(C(=O)OC(C)OC(=O)OC(C)C)N2C(=O)[C@@H](NC(=O)/C(=N\OC)c3csc(N)n3)[C@H]2SC1` (some centres unmarked) [PCM-0216141], the inhibition at 10 µM under setting [1] was -11.6%.
For the compound `Clc1ccc2c(N3CCN(CCCN4CCN(c5ccnc6cc(Cl)ccc56)CC4)CC3)ccnc2c1` [PCM-0216142], the inhibition at 10 µM under setting [1] is -5.1%.
Still for that read-out and setting: the figure for `O=C(O)CCCNC(=O)c1cccnc1` [PCM-0216143] is -17%; for `CCN(CC)c1ccc(/C=N/NC(=O)c2ccc(O)cc2)cc1` [PCM-0216144] it is 0%.
The same measure, in the same setting: the figure for `CCCCCCCC/C=C\CCCCCCCC(=O)OCC` [PCM-0216145] is 6.9%; for `Nc1ccn([C@@H]2O[C@H](COP(=O)(O)O)[C@@H](O)[C@H]2O)c(=O)n1` [PCM-0216146] it is -0.9%.
As to `CCCCCCC1CCC(=O)O1` (centres unmarked) [PCM-0216147], the inhibition at 10 µM under setting [1] was 0%.
On to `CCCCCCCCCC=O` [PCM-0216148], for which the inhibition at 10 µM under setting [1] is -10%.
Still for that read-out and setting: the figure for `CC12CCC(C1)C(C)(C)C2O` (centres unmarked) [PCM-0216150] is -13.9%.
On to `CCCCCCCCCCCCCCCCCCCCCC(=O)O` [PCM-0216151], for which the inhibition at 10 µM under setting [1] came to 23.2%.
The same measure, in the same setting: the figure for `O=CO` [PCM-0216152] is -12.4%.
Regarding `CCCCCCCC/C=C\CCCCCCCCCCCC(=O)O` [PCM-0216153], the inhibition at 10 µM under setting [1] was -64.9%.
Regarding `CC(C)CCCC(C)CCCC(C)CCCCC(C)CCCC(C)CCCC(C)C` (centres unmarked) [PCM-0216154], the inhibition at 10 µM under setting [1] was 8.5%.
On to `C=CC(=C)C` [PCM-0216155], for which the inhibition at 10 µM under setting [1] was 1.5%.
The same measure, in the same setting: the figure for `CC(C)C12CCC(C)(CC1)O2` [PCM-0216156] is 23.9%.
With `CCCCCCCCCCCCCCCCCC[N+](C)(C)C` [PCM-0216157], the inhibition at 10 µM under setting [1] was -27%.
Still for that read-out and setting: the figure for `Nc1ccc(Cl)cc1C(=O)C(F)(F)F` [PCM-0216158] is 23.2%.
On the same count and under the same terms, the figure for `O=C(O)C(=O)CBr` [PCM-0216160] is 6.2%.
As for `NC(N)=NCCCC[C@H](N)C(=O)O` [PCM-0216161], the inhibition at 10 µM under setting [1] is -8.5%.
`ClCCN(Cc1ccccc1)Cc1ccccc1` [PCM-0216162]: the inhibition at 10 µM (read-out: BTK inhibition (%)) is -20.1%.
As to `Cc1cc(C(=O)O)n[nH]1` [PCM-0216163], under setting [1], the inhibition at 10 µM was -0.8%.
On the same count and under the same terms, the figure for `O=S(=O)(Cl)c1ccc(-c2ccccc2)cc1` [PCM-0216165] is -8.5%.
As for `Brc1ccc2[nH]ccc2c1` [PCM-0216166], the inhibition at 10 µM under setting [1] was -11.6%.
As for `O=P(O)(O)Oc1cccc2ccccc12` [PCM-0216167], the inhibition at 10 µM (read-out: BTK inhibition (%)) was -4.6%.
`O=C(O)c1ccc(Br)c(O)c1` [PCM-0216168]: the inhibition at 10 µM under setting [1] is -23.9%.
For the compound `O=C(Nc1ccc2c(O)cc(S(=O)(=O)O)cc2c1)Nc1ccc2c(O)cc(S(=O)(=O)O)cc2c1` [PCM-0216169], the inhibition at 10 µM under setting [1] was determined as 29.3%.
As to `C[C@H]1O[C@@H](O[C@H]2CC[C@@]3(C)[C@@H](CC[C@]4(C)[C@@H]3C=C[C@]35OC[C@@]6(CCC(C)(C)C[C@H]63)[C@H](O)C[C@]54C)[C@]2(C)CO)[C@H](O)[C@@H](O[C@@H]2O[C@H](CO)[C@@H](O)[C@H](O)[C@H]2O)[C@H]1O` [PCM-0216171], the inhibition at 10 µM under setting [1] came out at 5.4%.
With `CC1(C)CC[C@]2(C(=O)O[C@@H]3O[C@H](CO[C@@H]4O[C@H](CO)[C@@H](O)[C@H](O)[C@H]4O)[C@@H](O)[C@H](O)[C@H]3O)CC[C@]3(C)C(=CC[C@@H]4[C@@]5(C)CC[C@H](O[C@@H]6OC[C@H](O)[C@H](O)[C@H]6O)[C@@](C)(CO)[C@@H]5CC[C@]43C)[C@@H]2C1` [PCM-0216172], the inhibition at 10 µM under setting [1] turned out to be 13.9%.
For the compound `COc1cccc(OC)c1C(=O)OCc1cc(O)ccc1O[C@@H]1O[C@H](CO)[C@@H](O)[C@H](O)[C@H]1O` [PCM-0216173], under setting [1], the inhibition at 10 µM is 0%.
With `C[C@@H]1O[C@@H](O[C@@H]2[C@@H](O)[C@H](OCCc3ccc(O)c(O)c3)O[C@H](CO)[C@H]2OC(=O)/C=C/c2ccc(O)c(O)c2)[C@H](O)[C@H](O)[C@H]1O` [PCM-0216174], the inhibition at 10 µM under setting [1] amounted to 15.9%.
On to `CC(=O)O[C@@H]1C[C@@]23C[C@@]24CC[C@H](O[C@@H]2OC[C@@H](O)[C@H](O)[C@H]2O)C(C)(C)[C@@H]4CC=C3[C@]2(C)C[C@@H]3OC4(C[C@@H](C)[C@@H]3[C@@]12C)OC(O)C1(C)OC41` (some centres unmarked) [PCM-0216175], for which the inhibition at 10 µM under setting [1] was -6.2%.
For the compound `CC(C)=CCc1cc2c(cc1O)oc(=O)c1c3ccc(O)cc3oc21` [PCM-0216176], the inhibition at 10 µM under setting [1] is 17.2%.
For `COC(=O)C1=CO[C@@H](O[C@@H]2O[C@H](CO)[C@@H](O)[C@H](O)[C@H]2O)[C@@H]2[C@H](C)O[C@@H](O)C[C@H]12` [PCM-0216177], the inhibition at 10 µM under setting [1] is -19.3%.
Same read-out and setting: the figure for `C[C@@H]1O[C@@H](O[C@H]2[C@H](Oc3c(-c4ccc(O)cc4)oc4cc(O)cc(O)c4c3=O)O[C@H](CO)[C@@H](O)[C@@H]2O)[C@H](O)[C@H](O)[C@H]1O` [PCM-0216179] is -1.7%; for `CC(C)=CCc1cc2c(cc1O)O[C@H](c1ccc(O)cc1)CC2=O` [PCM-0216180] it is 54.1%.
On to `O=C(O)C1=CO[C@@H](O[C@@H]2O[C@H](CO)[C@@H](O)[C@H](O)[C@H]2O)[C@H]2[C@@H]1C=C[C@]2(O)CO` [PCM-0216181], for which the inhibition at 10 µM under setting [1] was -6.9%.
Regarding `COc1cc(C=O)c([N+](=O)[O-])cc1OC` [PCM-0216182], the inhibition at 10 µM under setting [1] is -13.9%.
In the case of `CCOC(=O)C=P(c1ccccc1)(c1ccccc1)c1ccccc1` [PCM-0216183], under setting [1], the inhibition at 10 µM was -14.7%.
On to `O=C[C@H](O)[C@@H](O)[C@H](O)[C@H](O)COP(=O)(O)O` [PCM-0216185], for which, under setting [1], the inhibition at 10 µM was found to be 13.6%.
Regarding `Cc1ccc(C(=O)O)c(O)c1` [PCM-0216186], the inhibition at 10 µM under setting [1] turned out to be 10%.
Regarding `CC(=O)c1ccccc1` [PCM-0216190], under setting [1], the inhibition at 10 µM is 3.1%.
For the compound `Cc1ncc([N+](=O)[O-])n1C` [PCM-0216192], the inhibition at 10 µM under setting [1] is -21.4%.
In the case of `OC1OC[C@@H](O)[C@@H](O)[C@H]1O` (some centres unmarked) [PCM-0216193], the inhibition at 10 µM under setting [1] was 4.6%.
For the compound `NC(CO)C(=O)O` (centres unmarked) [PCM-0216194], the inhibition at 10 µM under setting [1] came to 1.7%.
`CCCCCCCC(=O)CCc1ccc(O)c(OC)c1` [PCM-0216195]: under setting [1], the inhibition at 10 µM was -8.3%.
As for `Cc1cccc(C)c1N(CC(=O)Nc1ccc(-c2ncon2)cc1)C(=O)C1CCS(=O)(=O)CC1` [PCM-0216196], under setting [1], the inhibition at 10 µM came out at 2.3%.
For the compound `CC(=O)O[C@H]1C[C@H](O[C@H]2[C@@H](O)C[C@H](O[C@H]3[C@@H](O)C[C@H](O[C@H]4CC[C@@]5(C)[C@H](CC[C@@H]6[C@@H]5C[C@@H](O)[C@]5(C)[C@@H](C7=CC(=O)OC7)CC[C@]65O)C4)O[C@@H]3C)O[C@@H]2C)O[C@H](C)[C@H]1O[C@@H]1O[C@H](CO)[C@@H](O)[C@H](O)[C@H]1O` [PCM-0216197], the inhibition at 10 µM under setting [1] is -4.6%.
Consider `COc1ccccc1` [PCM-0216198], for which the inhibition at 10 µM under setting [1] was -14.7%.
On the same count and under the same terms, the figure for `CCCCCCCCCCCCCCCCCCCC(=O)O` [PCM-0216199] is 9.3%; for `NC(=O)C[C@H](N)C(=O)O` [PCM-0216200] it is 13.6%; for `O=Cc1ccccc1` [PCM-0216202] it is -2.3%.
Turning to `O=c1[nH]c2ccccc2o1` [PCM-0216203], under setting [1], the inhibition at 10 µM came out at 5.4%.
Regarding `CC(=O)OCc1ccccc1` [PCM-0216204], the inhibition at 10 µM under setting [1] worked out at 10.8%.
On to `NCCCCCN` [PCM-0216205], for which, under setting [1], the inhibition at 10 µM was determined as 14.7%.
For the compound `O=C(O)c1cc(=O)cc(C(=O)O)o1` [PCM-0216206], under setting [1], the inhibition at 10 µM is -6.2%.
For `CC(=O)OC/C=C/c1ccccc1` [PCM-0216207], under setting [1], the inhibition at 10 µM is -14.7%.
In the case of `CC(C)=CCCC(C)CCO` (centres unmarked) [PCM-0216208], under setting [1], the inhibition at 10 µM is -7.7%.
Turning to `CC(C)=CCCC(C)CC=O` (centres unmarked) [PCM-0216209], the inhibition at 10 µM under setting [1] stood at 4.6%.
For the compound `O=C(O)/C=C/c1cccc(O)c1` [PCM-0216210], the inhibition at 10 µM under setting [1] is -3.1%.
In the case of `c1ccc2occc2c1` [PCM-0216211], under setting [1], the inhibition at 10 µM was determined as 6.2%.
Regarding `CN(CC(=O)O)C(=N)N` [PCM-0216212], the inhibition at 10 µM under setting [1] is -30.6%.
Take `C=C1C2CCC(C2)C1(C)C` (centres unmarked) [PCM-0216213]: under setting [1], the inhibition at 10 µM stood at 18.5%.
For the compound `CC1=CC[C@@H](C(C)(C)O)CC1` [PCM-0216214], the inhibition at 10 µM under setting [1] is -20.8%.
For the compound `CC1=CCC2C(C1)C2(C)C` (centres unmarked) [PCM-0216215], the inhibition at 10 µM under setting [1] turned out to be 8.5%.
Regarding `CC(=O)O[C@@H]1C[C@H](C)CC[C@H]1C(C)C` [PCM-0216217], the inhibition at 10 µM under setting [1] was determined as 13.1%.
Take `Cc1ccc(C(C)C)cc1` [PCM-0216218]: the inhibition at 10 µM under setting [1] is -20.1%.
Regarding `C=C1[C@H]2CC[C@@H]3[C@H]2C(C)(C)CCC[C@]13C` [PCM-0216219], under setting [1], the inhibition at 10 µM was determined as 4.6%.
`O=C(O)CNC(=O)c1ccccc1` [PCM-0216220]: under setting [1], the inhibition at 10 µM worked out at 20.8%.
Consider `O=C(O)[C@@H]1CCCN1` [PCM-0216221], for which, under setting [1], the inhibition at 10 µM is -24.7%.
With `C[C@H](N)C(=O)O` [PCM-0216222], the inhibition at 10 µM under setting [1] was -4.3%.
Still for that read-out and setting: the figure for `CSCC[C@H](N)C(=O)O` [PCM-0216223] is -0.9%; for `COC(=O)c1ccco1` [PCM-0216224] it is -23.9%; for `Cc1nc(Nc2ncc(C(=O)Nc3cc(NC(=O)c4cccc(C(F)(F)F)c4)ccc3C)s2)cc(N2CCN(CCO)CC2)n1` [PCM-0216225] it is 47.9%.
Consider `COc1cc(CCC(=O)CC(=O)CCc2ccc(O)c(OC)c2)ccc1O` [PCM-0216226], for which the inhibition at 10 µM under setting [1] was -7%.
For `O=c1ccc2ccc(O)cc2[nH]1` [PCM-0216227], the inhibition at 10 µM under setting [1] came out at 7.8%.
With `CSCC1CN(/N=C/c2ccc([N+](=O)[O-])o2)C(=O)O1` (centres unmarked) [PCM-0216228], the inhibition at 10 µM under setting [1] turned out to be 20.7%.
Still for that read-out and setting: the figure for `NN1CC(=O)NC1=O` [PCM-0216229] is -7.8%.
